In patent US20220370486A1, “COMBINATION TREATMENT OF SYSTEMIC FUNGAL INFECTIONS” (The Board of Trustees of the University of Illinois, priority 2019, published 2022):
Like-named read-outs stand apart in the source and are kept apart here.

Assays:
[1] = system: primary hREC; assay: Toxicity to primary hREC; assay type: cell-based, human
Description: (§1) This key discovery opened a path to the rational development of a non-toxic AmB variant. To probe its predicted role in sterol binding, the hydroxyl group was synthetically deleted at the C2′ position on the mycosamine appendage.
(§2) In each case, C2′epiAmB is non-toxic to human red blood cells, primary hREC, mice, and rats up to the highest dose tested.

[2] = Isothermal titration calorimetry (ITC) sterol binding
Description: as §1
A practical 11-step synthesis of C2′epiAmB using a frontier site-selective acylation method was developed. Wilcock, B. C. et al., Nat Chem 2012, 4 (12), 996-1003; Uno, B. E. A synthesis enabled understanding of Amphotericin B leading to derivatives with improved therapeutic indices. University of Illinois at Urbana-Champaign, 2014. The sterol binding and cell killing activities was then determined.

[3] = system: human red blood cells; assay: Toxicity to human red blood cells; assay type: cell-based
Description: as §1, §2

[4] = system: yeast; assay: Activity against yeast; assay type: cell-based
Description: as §1

[5] = system: C. glabrata 1046695; assay: Checkerboard broth microdilution (CLSI); assay type: cell-based; conditions: Nakaseomyces glabratus; single agent; isolate 1046695; read-out: MIC
Protocol: (§3) Isolates were tested against varying concentrations of amphotericin B and C2′epiAmB (range, 0.06 to 4 mg/L) and combined with fluconazole (range, 0.12 to 128 mg/L) or ketoconazole (range 0.008 to 8 mg/L) or voriconazole (range, 0.004 to 4 mg/L) using a checkerboard grid design following the Clinical and Laboratory Standards Institute (CLSI) broth microdilution method (M23Ed5).

[6] = system: C. krusei ATCC 6258; assay: Checkerboard broth microdilution (CLSI); assay type: cell-based; conditions: Pichia kudriavzevii, ATCC6258, single agent; isolate ATCC 6258; read-out: MIC
Protocol: as §3

[7] = system: C. krusei 975691; assay: Checkerboard broth microdilution (CLSI); assay type: cell-based; conditions: Pichia kudriavzevii, single agent; isolate 975691; read-out: MIC
Protocol: as §3

[8] = system: C. albicans 967374; assay: Checkerboard broth microdilution (CLSI); assay type: cell-based; conditions: Candida albicans, single agent; isolate 967374; read-out: MIC
Protocol: as §3

[9] = system: C. auris 1081160; assay: Checkerboard broth microdilution (CLSI); assay type: cell-based; conditions: Candidozyma auris; single agent; isolate 1081160; read-out: MIC
Protocol: as §3

[10] = system: A. fumigatus 1077391; assay: Checkerboard broth microdilution (CLSI); assay type: cell-based; conditions: Aspergillus fumigatus; single agent; isolate 1077391
Protocol: as §3

[11] = system: F. solani SC 1047542; assay: Checkerboard broth microdilution (CLSI); assay type: cell-based; conditions: Fusarium solani; single agent; isolate 1047542
Protocol: as §3

[12] = system: A. flavus ATCC 204304; assay: Checkerboard broth microdilution (CLSI); assay type: cell-based; conditions: Aspergillus flavus, ATCC204304; single agent; isolate ATCC 204304
Protocol: as §3

[13] = system: A. flavus SC 1085986; assay: Checkerboard broth microdilution (CLSI); assay type: cell-based; conditions: Aspergillus flavus; single agent; isolate 1085986
Protocol: as §3

[14] = system: A. fumigatus ATCC MYA-3626; assay: Checkerboard broth microdilution (CLSI); assay type: cell-based; conditions: Aspergillus fumigatus, single agent; isolate ATCC MYA-3626; read-out: MIC
Protocol: as §3

[15] = system: F. oxysporum SC 1087597; assay: Checkerboard broth microdilution (CLSI); assay type: cell-based; conditions: Fusarium oxysporum; single agent; isolate 1087597
Protocol: as §3

[16] = system: C. parapsilosis 1048737; assay: Checkerboard broth microdilution (CLSI); assay type: cell-based; conditions: single agent, isolate 1048737
Protocol: as §3

[17] = system: C. tropicalis 1046709; assay: Checkerboard broth microdilution (CLSI); assay type: cell-based; conditions: Candida tropicalis; single agent; isolate 1046709
Protocol: as §3

[18] = system: C. parapsilosis ATCC 22019; assay: Checkerboard broth microdilution (CLSI); assay type: cell-based; conditions: Lodderomyces parapsilosis, ATCC22019, single agent; isolate ATCC 22019; read-out: MIC
Protocol: as §3

MIC [5] [µg/mL] | MIC [6] [µg/mL] | MIC [7] [µg/mL] | MIC [8] [µg/mL] | MIC [9] [µg/mL] | MIC [10] [µg/mL] | MIC [11] [µg/mL] | MIC [12] [µg/mL] | MIC [13] [µg/mL] | MIC [14] [µg/mL] | MIC [15] [µg/mL] | MIC ([16]; Lodderomyces parapsilosis, read-out: MIC) [ng/mL] | MIC [16] [ng/mL] | MIC [17] [µg/mL] | MIC [18] [µg/mL] | Structure (SMILES) | toxicity to primary hREC [1] | binding of ergosterol by ITC [2] | binding of cholesterol by ITC ([2]; within the detection limits of ITC) | toxicity to human red blood cells [3] | activity against yeast [4]
 |  |  |  |  |  |  |  |  |  |  |  |  |  |  | CC1C=CC=CC=CC=CC=CC=CC=CC(OC2CC(N)C(O)C(C)O2)CC2OC(O)(CC(O)CC(O)C(O)CCC(O)CC(O)CC(=O)OC(C)C(C)C1O)CC(O)C2C(=O)O (centres unmarked) [C2′deOAmB] | nontoxic | bind ergosterol | not cholesterol | nontoxic | retained good activity
4 | 0.25 | 4 | 0.25 | 1 | 2 | 4 | 1 | 1 | 0.5 | 4 | 8 | 15 | 0.12 | 0.03 | C[C@@H](c1ncncc1F)[C@](O)(Cn1cncn1)c1ccc(F)cc1F [Voriconazole, voriconazole] |  |  |  |  | 
